Key:
test animal tumor models = conditions: co-administered with PALA, tetrahydrouridine and 5-fluoro-2′deoxyctidine, fractionated x-ray treatments; cited from earlier work
cellular DNA = conditions: after incorporation into cellular DNA in vitro; 22-45% of thymine substituted; cited from earlier work
CD1 mice = test: In vivo tolerance of tungsten heteropolyanions in mice; conditions: injected into CD1 mice
Experimental: A column containing carboxymethyl cellulose medium was prepared and charged with tetramethylammonium acetate, then rinsed with deionized water. Silicotungstic acid (H4SiW12O40.30H2O, 10 mg/ml in water) was injected onto the column and ion exchanged to produce the cluster surrounded and charge-shielded by quaternary ammonium ions.
A complex between the quaternary cation, tetramethylammonium was also formed by mixing equimolar amounts of H4SiW12O40.30H2O, 10 mg/ml in water and tetramethylammonium bromide, 100 mg/ml in water. Some white precipitate was formed that was removed by centrifugation at 13 k×g for 10 minutes, then filtering through a molecular filter, Amicon Centricon 30, that only passes molecules less than 30,000 Daltons. […] Dilutions were prepared and injected into CD1 mice. Good tolerance and normal weight gain was found at blood concentrations of approximately 5 mg/ml, whereas the uncomplexed heteropoltungstate was lethal at 1 mg/ml.

Nc1nc(=O)n([C@H]2C[C@H](O)[C@@H](CO)O2)cc1Cl [5-chloro-2′-deoxycytidine]
dose enhancement (test animal tumor models): threefold

O=c1[nH]c(=O)n([C@H]2C[C@H](O)[C@@H](CO)O2)cc1I [iododeoxyuridine]
radiotherapeutic advantage (factor) (cellular DNA): about 3

Silicotungstic acid [uncomplexed heteropoltungstate]
lethal blood concentration (CD1 mice): 1 mg/mL
